Positions of bridges follow the written chain, without caps; N, C: chain ends. Non-standard residues stand in square brackets, D forms with d. No end group written: not given here.
Tests used:
KgpF [1] = assay: Prenylation of translated thioether-closed artificial cyclic peptides with KgpF, MALDI-TOF-MS analysis (Examples 1-9; 37° C., 18 hours); type: biochemical, Microcystis aeruginosa; parameters: key to DMAPP adduct 0 / DMAPP adduct 1: 0: N/A; 1: Nothing; 2: Very weak intensity; 3: Medium intensity; 4: Strong intensity; settings: 2 mM DMAPP; for prenylation modification with KgpF (MALDI-TOF-MS): Example 3: 160 or 580 μM KgpF; for DMAPP adduct 1: MALDI-TOF-MS peak intensity of singly prenylated peptide; for DMAPP adduct 1 / DMAPP adduct 0: 160 μM KgpF; for DMAPP adduct 0: MALDI-TOF-MS peak intensity of unmodified peptide
Method: With regards to each of KgpF and OltF, heterogeneous co-expression of a gene synthesized after optimizing the codon of a gene derived from a producing strain was performed in Escherichia coli, followed by purification to obtain a prenylation enzyme.
The analysis was performed using UltrafleXtreme (Bruker Daltonics) or Autoflex II (Bruker Daltonics) and peptide calibration standard II (Bruker Daltonics).
In short, six kinds in total of peptides were obtained by translation and synthesis under (Conditions 1) of the artificial translation system developed by the present inventors. The peptides thus obtained were then reacted with 14.7 μM KgpF at 37° C. for 18 hours in the system shown in (Conditions 2). “DMAPP” used in (Conditions 2) is dimethylallyl pyrophosphoric acid.
(Conditions 1) • FIT system: v7s/v8.0.3 • 19aa-Met: 0.5 mM • ClAc-D or L-Trp-tRNA^fMetCUA: 90 μM • Reaction: 37° C., 60 min. • Scale: […] scale
(Conditions 2) • Translated mixture amount: 2.5 μL (mixture obtained under (Conditions 1)) • KgpF: 14.7 μM • DMAPP: 2 mM • Total amount: 15.7 μL • Reaction: 37° C., 18 hours
The YG280 sequences having the steric configuration of the N terminal Trp serving as an initiation residue of D-form and those of L-form were synthesized, so that two kinds of peptides were prepared in total. These two kinds of artificial cyclic peptides were obtained by translation and synthesis in the artificial translation system (Conditions 3) developed by the present inventors. The peptides thus obtained were then reacted with 53, 160, and 580 μM KgpF in a system shown in (Conditions 4) at 37° C. for 18 hours.
(Conditions 3) • FIT system: v7s/v8.0.3 • 19aa-Met: 0.5 mM • ClAc-D or L-Trp-tRNA^fMetCUA: 120 μM • Reaction: 37° C., 3 hours • Scale: 2.5 μL scale
(Conditions 4) • Translated mixture amount: 2.5 μL (mixture obtained under (Conditions 3)) • KgpF: 53, 160, 580 μM • DMAPP: 2 mM • Reaction: 37° C., 18 hours
(§1) The above three kinds of artificial cyclic peptides were obtained by translation and synthesis in the artificial translation system (Conditions 5) developed by the present inventors. The peptides thus obtained were then reacted with KgpF in the system shown below in (Conditions 6) at 37° C. for 18 hours.
(Conditions 5) • FIT system: v7s/v8.0.3 • 19aa-Met: 0.5 mM • ClAc-D or L-Trp-tRNA^fMetCUA: 90 μM • Reaction: 37° C., 60 min. • Scale: 2.5 μL scale
(Conditions 6) • Translated mixture amount: 2.5 μL (mixture obtained under (Conditions 5)) • KgpF: 160 or 580 μM • DMAPP: 2 mM • Reaction: 37° C., 18 hours
as §1, with “six” for “three”, “7)” for “5)”, “with 160 μM” for “with”, “shown” for “shown below”, “8)” for “6)”
(Conditions 7) • FIT system: v7s/v9.1 • 19aa-Met: 0.5 mM • ClAc-D-Tyr-tRNA^fMetCUA: 90 μM • Reaction: 37° C., 60 min. • Scale: 2.5 μL scale
(Conditions 8) • Translated mixture amount: 2.5 μL (mixture obtained under (Conditions 7)) • KgpF: 160 μM • DMAPP: 2 mM • Reaction: 37° C., 18 hours
as §1, with “9)” for “5)”, “with 160 μM” for “with”, “shown” for “shown below”, “10)” for “6)”
(Conditions 9) • FIT system: v7s/v9.1 • 19aa-Met: 0.5 mM • ClAc-D-Tyr-tRNA^fMetCUA: 90 μM • Reaction: 37° C., 60 min. • Scale: 2.5 μL scale
(Conditions 10) • Translated mixture amount: 2.5 μL (mixture obtained under (Conditions 9)) • KgpF: 160 μM • DMAPP: 2 mM • Reaction: 37° C., 18 hours
The above artificial cyclic peptides were obtained by translation and synthesis in the artificial translation system (Conditions 11) developed by the present inventors. […]

KgpF v 3.1 = assay: Prenylation of artificial cyclic peptides with 10 μM KgpF v 3.1 (Example 11; Table 7); type: biochemical, Microcystis aeruginosa; parameters: key: 5: strong intensity; 4: medium intensity; 3: weak intensity; 2: very weak intensity; 1: no peak; N/A: not observed; settings: KgpF v 3.1 10 μM
Method: Reaction of the artificial cyclic peptide shown in Table 7 was made under conditions similar to (Conditions 11) and (Conditions 12) except that v8s/v11.1 was used as FIT system, KgpF v 3.1 was used as a prenylation modification enzyme, and the concentration of the KgpF v 3.1 was set at 10 μM. Here, KgpF v 3.1 is an enzyme having a higher purification degree and more improved specific activity than KgpF used under (Conditions 12).

KgpF [2] = assay: Prenylation of artificial cyclic peptides containing VW or WG sequence with 60 μM KgpF (Examples 12 and 13; Tables 8, 9, 10); type: biochemical, Microcystis aeruginosa; parameters: key: 5: strong intensity; 4: medium intensity; 3: weak intensity; 2: very weak intensity; 1: no peak; N/A: not observed; settings: KgpF 60 μM, DMAPP 2 mM, 37° C., 18 hours
Method: (§2) The artificial cyclic peptides shown in Table 8 and Table 9 were obtained by translation and synthesis in the artificial translation system (Conditions 15) developed by the present inventors. The peptides thus obtained were then reacted with 60 μM KgpF in the system shown in (Conditions 16) at 37° C. for 18 hours.
(Conditions 15) • FIT system: v8s/v11.1 • 19aa-Met: 0.5 mM • ClAc-D-Tyr-tRNA^fMetCUA: 90 μM • Reaction: 37° C., 60 min. • Scale: 2.5 μL scale
(Conditions 16) • Translated mixture amount: 2.5 μL (mixture obtained under (Conditions 15)) • KgpF: 60 μM • DMAPP: 2 mM • Reaction: 37° C., 18 hours
as §2, with “10” for “8 and Table 9”, “17)” for “15)”, “18)” for “16)”
(Conditions 17) • FIT system: v8s/v11.1 • 19aa-Met: 0.5 mM • ClAc-D-Tyr-tRNA^fMetCUA: 90 μM • Reaction: 37° C., 60 min. • Scale: 2.5 μL scale
(Conditions 18) • Translated mixture amount: 2.5 μL (mixture obtained under (Conditions 17)) • KgpF: 60 μM • DMAPP: 2 mM • Reaction: 37° C., 18 hours

OltF v 2.1 = assay: Modification test of thioether-closed artificial cyclic peptides with 9.13 μM OltF v 2.1 (Example 16; Tables 11 and 12); type: biochemical, Planktothrix; parameters: key: 5: strong intensity; 4: medium intensity; 3: weak intensity; 2: very weak intensity; 1: no peak; N/A: not observed; settings: OltF v 2.1 9.13 μM, DMAPP 2 mM, 37° C., 18 hours
Method: The artificial cyclic peptides shown in Table 11 and Table 12 were obtained by translation and synthesis in the artificial translation system (Conditions 23) developed by the present inventors. The peptides thus obtained were then reacted with 9.13 μM OltF in the system shown in (Conditions 24) at 37° C. for 18 hours. It is to be noted that OltF v 2.1 is an enzyme prepared from OltF used in (Conditions 22) while changing a purification manner.
(Conditions 23) • FIT system: v8s/v11.1 • 19aa-Met: 0.5 mM • ClAc-D or L-Tyr-tRNA^fMetCUA: 90 μM • Reaction: 37° C., 60 min. • Scale: 2.5 μL scale
(Conditions 24) • Translated mixture amount: 2.5 μL (mixture obtained under (Conditions 23)) • OltF v 2.1: 9.13 μM • DMAPP: 2 mM • Reaction: 37° C., 18 hours

[3] = Table 10, W at various positions
[4] = Table 8, VW sequence, various ring sizes
[5] = Table 9, VW sequence, various ring sizes

Chain of OltF v 2.1 (as listed by the source): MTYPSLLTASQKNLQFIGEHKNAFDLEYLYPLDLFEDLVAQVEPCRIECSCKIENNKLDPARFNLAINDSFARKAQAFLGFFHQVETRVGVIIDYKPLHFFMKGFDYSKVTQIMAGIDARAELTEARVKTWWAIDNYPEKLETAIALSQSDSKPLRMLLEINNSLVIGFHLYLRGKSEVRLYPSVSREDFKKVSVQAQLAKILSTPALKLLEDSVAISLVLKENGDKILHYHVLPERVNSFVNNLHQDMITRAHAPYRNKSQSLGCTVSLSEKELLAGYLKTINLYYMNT
Chain of KgpF v 3.1 (as listed by the source): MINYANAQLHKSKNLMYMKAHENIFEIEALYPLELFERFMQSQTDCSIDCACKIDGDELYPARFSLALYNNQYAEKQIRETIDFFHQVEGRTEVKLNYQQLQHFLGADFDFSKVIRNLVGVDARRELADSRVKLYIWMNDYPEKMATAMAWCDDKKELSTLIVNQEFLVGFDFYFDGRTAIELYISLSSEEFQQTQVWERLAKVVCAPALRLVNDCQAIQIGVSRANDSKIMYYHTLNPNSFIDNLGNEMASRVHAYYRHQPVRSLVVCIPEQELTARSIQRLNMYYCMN

Substance: YG298: YG280 mutant having only the N-terminal Trp residue remained ({CH2CO}-[dW]LNGDNNYSTPC; thioether N-12)
- prenylation modification with KgpF (MALDI-TOF-MS) (KgpF [1]): no modified product was found

Substance: YG291-PaktiL2 ({CH2CO}-[dY]WILITWPLVRRKC; thioether N-14 (inferred))
- Peak intensity, The number of prenyl groups added 0 (KgpF v 3.1): 4
- Peak intensity, The number of prenyl groups added 1 (KgpF v 3.1): 4

Substance: YG402 ({CH2CO}-[dY]WGHDYRVYHTYPC; thioether N-14 (inferred))
- Peak intensity, The number of prenyl groups added 0 (KgpF [2]; [3]): 5
- Peak intensity, The number of prenyl groups added 1 (KgpF [2]; [3]): 1

Substance: YG293-MaL4 ({CH2CO}-[dY]TFRDVWIFYGSLLSRC; thioether N-17 (inferred))
- Peak intensity, The number of prenyl groups added 0 (KgpF v 3.1): 1
- Peak intensity, The number of prenyl groups added 1 (KgpF v 3.1): 5

Substance: YG300-CM11(RFG > NWS): artificial cyclic peptide, template YCDVSGNWSYPC (SEQ ID NO 239)
- DMAPP adduct 1 (KgpF [1]): 4
- DMAPP adduct 0 (KgpF [1]): 2

Substance: YG304-YG280(FFWFF): artificial cyclic peptide, template YLNGDFFWFFPC (SEQ ID NO 246) ({CH2CO}-[dY]LNGDFFWFFPC; thioether N-12)
- DMAPP adduct 1 (KgpF [1]): 3
- DMAPP adduct 0 (KgpF [1]): 4

Substance: YG296 ({CH2CO}-[dY]WYYAWDQTYKAFPC; thioether N-15 (inferred))
- Peak intensity, The number of prenyl groups added 0 (OltF v 2.1; Table 11): 3
- Peak intensity, The number of prenyl groups added 1 (OltF v 2.1; Table 11): 2
- Peak intensity, The number of prenyl groups added 2 (OltF v 2.1; Table 11): 1

Substance: DNT034 (Ac-[dY]NNRERGSDYFWLPPC; thioether (positions not given here); not fully specified (bridges))
- Peak intensity, The number of prenyl groups added 0 (OltF v 2.1; Table 12): 1
- Peak intensity, The number of prenyl groups added 1 (OltF v 2.1; Table 12): 5

Substance: YG411 ({CH2CO}-[dY]HDYRYHTYPVWGC; thioether N-14 (inferred))
- Peak intensity, The number of prenyl groups added 0 (KgpF [2]; [3]): 1
- Peak intensity, The number of prenyl groups added 1 (KgpF [2]; [3]): 5

Substance: YG293 ({CH2CO}-[dY]TFRDVWIFYGSLLSRC; thioether N-17 (inferred))
- Peak intensity, The number of prenyl groups added 0 (OltF v 2.1; Table 11): 3
- Peak intensity, The number of prenyl groups added 1 (OltF v 2.1; Table 11): 4

Substance: DNT065 (Ac-[dY]NNRERGSDNNWNNPC; thioether (positions not given here); not fully specified (bridges))
- Peak intensity, The number of prenyl groups added 0 (OltF v 2.1; Table 12): 3
- Peak intensity, The number of prenyl groups added 1 (OltF v 2.1; Table 12): 5

Substance: YG296-aMD5 ({CH2CO}-[dY]WYYAWDQTYKAFPC; thioether N-15 (inferred))
- Peak intensity, The number of prenyl groups added 0 (KgpF v 3.1): 5
- Peak intensity, The number of prenyl groups added 1 (KgpF v 3.1): 3
- Peak intensity, The number of prenyl groups added 2 (KgpF v 3.1): 1

Substance: YG290-CM11: peptide having no Trp residue in the peptide chain (random region) (Ac-[dW]CDVSGRFGYFPC; thioether (positions not given here); also: thioether ring to Cys2 or Cys13)
- prenylation modification with KgpF (MALDI-TOF-MS) (KgpF [1]): no modified product was found

Substance: DNT057 (Ac-[dY]RQFNRRTHYFWLPDC; thioether (positions not given here); not fully specified (bridges))
- Peak intensity, The number of prenyl groups added 0 (OltF v 2.1; Table 12): 1
- Peak intensity, The number of prenyl groups added 1 (OltF v 2.1; Table 12): 5

Substance: DNT066 (Ac-[dY]NNRERGSDVVWVVPC; thioether (positions not given here); not fully specified (bridges))
- Peak intensity, The number of prenyl groups added 0 (OltF v 2.1; Table 12): 4
- Peak intensity, The number of prenyl groups added 1 (OltF v 2.1; Table 12): 5

Substance: YG386 ({CH2CO}-[dY]VWCYPRG; thioether N-4)
- Peak intensity, The number of prenyl groups added 0 (KgpF [2]; [4]): 1
- Peak intensity, The number of prenyl groups added 1 (KgpF [2]; [4]): 5

Substance: YG390 ({CH2CO}-[dY]RVWGYPC; thioether N-8)
- Peak intensity, The number of prenyl groups added 0 (KgpF [2]; [4]): 1
- Peak intensity, The number of prenyl groups added 1 (KgpF [2]; [4]): 5

Substance: YG395 ({CH2CO}-[dY]HDYRVWGYHTPC; thioether N-13 (inferred))
- Peak intensity, The number of prenyl groups added 0 (KgpF [2]; [5]): 1
- Peak intensity, The number of prenyl groups added 1 (KgpF [2]; [5]): 5

Substance: YG295-aML5 ({CH2CO}-[dY]ISWNEFNSPNWRFITC; thioether N-17 (inferred))
- Peak intensity, The number of prenyl groups added 0 (KgpF v 3.1): 1
- Peak intensity, The number of prenyl groups added 1 (KgpF v 3.1): 5
- Peak intensity, The number of prenyl groups added 2 (KgpF v 3.1): 1
